Laboratory results reported in US20260327211A1, “MODULATORS OF A POTASSIUM CHANNEL AND OF TRPV1 CHANNEL AND USES THEREOF” (Bsense Bio Therapeutics Ltd., priority 2023, published 2026).
Converted amounts (≈) assume the structure as drawn. Read-outs that look alike come from different tables or passages of the source.

Experiments:
hTRPV1 = target: T1, hTRPV1 (Homo sapiens, UniProt Q8NER1); assay: TRPV1 HCS, Fluo-8 calcium flux, capsaicin activation, CHO cells expressing hTRPV1; assay type: cell-based
T1 construct: CDS of NM_080704.4, inserted into the multiple cloning site of pcDNA3.1(+); host or cells: CHO/hKv7.2/3
T1 sequence (Q8NER1 whole entry): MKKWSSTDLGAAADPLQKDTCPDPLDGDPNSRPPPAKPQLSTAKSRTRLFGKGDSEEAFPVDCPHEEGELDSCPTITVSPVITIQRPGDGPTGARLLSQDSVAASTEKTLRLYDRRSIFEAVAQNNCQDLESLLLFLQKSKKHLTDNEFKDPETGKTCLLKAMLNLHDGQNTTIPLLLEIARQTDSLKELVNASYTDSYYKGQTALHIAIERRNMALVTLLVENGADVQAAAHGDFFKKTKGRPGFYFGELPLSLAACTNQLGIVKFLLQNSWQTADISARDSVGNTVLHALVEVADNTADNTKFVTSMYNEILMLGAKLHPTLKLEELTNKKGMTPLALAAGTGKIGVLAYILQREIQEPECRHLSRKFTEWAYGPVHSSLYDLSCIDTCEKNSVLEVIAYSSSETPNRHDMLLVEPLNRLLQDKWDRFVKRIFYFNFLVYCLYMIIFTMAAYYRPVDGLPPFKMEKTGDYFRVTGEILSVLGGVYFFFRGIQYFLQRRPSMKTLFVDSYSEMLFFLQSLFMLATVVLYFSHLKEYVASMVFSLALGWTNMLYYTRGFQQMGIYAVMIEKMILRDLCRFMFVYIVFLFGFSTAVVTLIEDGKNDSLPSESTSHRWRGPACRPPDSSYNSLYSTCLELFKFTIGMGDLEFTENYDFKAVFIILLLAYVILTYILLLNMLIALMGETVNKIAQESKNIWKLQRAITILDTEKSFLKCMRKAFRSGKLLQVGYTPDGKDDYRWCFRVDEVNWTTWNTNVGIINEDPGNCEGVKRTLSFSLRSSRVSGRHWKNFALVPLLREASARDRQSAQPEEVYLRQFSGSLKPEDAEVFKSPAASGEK
Description: Cell culture: Chinese hamster ovary (CHO) cell-line cells with constitutive expression of human hTRPV1 channels (B'SYS GmbH, Switzerland) were cultured in F-12 nutrient mixture (Biological Industries) supplemented with 10% fetal bovine serum (Biological Industries) and 1% penicillin-streptomycin (Biological Industries) in a humidified 5% CO2 incubator at 37° C. To maintain the stable expression of hTRPV1, antibiotic selection (G418 500 μg/ml) was applied.
High content screen (HCS) using Fluo-8 No Wash Calcium flux Assay Kit: Fluo-8 No Wash Calcium Assay Kit (Abcam, ab112129) was used with CHO stably or transiently expressing TRPV1 to screen compounds against the hTRPV1 ion channel target. The cells were pre-loaded with Fluo-8AM which is membrane permeable. The AM groups of the Fluo-8AM were then being cleaved by intracellular esterase, trapping the Fluo8 in the cell. […] The relative fluorescence signal was calculated following background subtraction, comparing the fluorescence at each time point to its maximal level measured following Ionomycin application in the end.
According to optimization process to achieve uniform and consistent screening condition of molecules the following protocol was established: Cells were seeded in 384-well, black-walled, clear-bottomed, at a density of 5,000 cells per well 24 h before the assay conductance and incubated overnight in their normal growth medium. On the experiment day the medium was replaced in each well with HBSS, HEPES, and compound/vehicle (0.2% DMSO). Dye solution (prepared according to the manufacturer) was added to the wells and plates are incubated for 1.5 h light-protected in room temperature. The Tecan Spark plate reader injectors were then primed with capsaicin and Ionomycin for channel activation and data normalization, respectively. […] To calculate IC50 values, the data was fitted to sigmoidal regression line using Prism GraphPad. The fitting was constrained to a minimum of 0 and a maximal response of about 1 unless a different maximal response could be identified.

hKv7.2/3 = target: T2, hKv7.2/3 (Homo sapiens, UniProt O43525+O43526); assay: Kv7.2/7.3 HCS, FLIPR potassium (thallium) assay, CHO/hKv7.2/3; assay type: cell-based; conditions: for EC50: Table 1, read-out: Kv7.2/7.3 IC50
T2 construct: host or cells: CHO
T2 sequence (O43525 whole entry): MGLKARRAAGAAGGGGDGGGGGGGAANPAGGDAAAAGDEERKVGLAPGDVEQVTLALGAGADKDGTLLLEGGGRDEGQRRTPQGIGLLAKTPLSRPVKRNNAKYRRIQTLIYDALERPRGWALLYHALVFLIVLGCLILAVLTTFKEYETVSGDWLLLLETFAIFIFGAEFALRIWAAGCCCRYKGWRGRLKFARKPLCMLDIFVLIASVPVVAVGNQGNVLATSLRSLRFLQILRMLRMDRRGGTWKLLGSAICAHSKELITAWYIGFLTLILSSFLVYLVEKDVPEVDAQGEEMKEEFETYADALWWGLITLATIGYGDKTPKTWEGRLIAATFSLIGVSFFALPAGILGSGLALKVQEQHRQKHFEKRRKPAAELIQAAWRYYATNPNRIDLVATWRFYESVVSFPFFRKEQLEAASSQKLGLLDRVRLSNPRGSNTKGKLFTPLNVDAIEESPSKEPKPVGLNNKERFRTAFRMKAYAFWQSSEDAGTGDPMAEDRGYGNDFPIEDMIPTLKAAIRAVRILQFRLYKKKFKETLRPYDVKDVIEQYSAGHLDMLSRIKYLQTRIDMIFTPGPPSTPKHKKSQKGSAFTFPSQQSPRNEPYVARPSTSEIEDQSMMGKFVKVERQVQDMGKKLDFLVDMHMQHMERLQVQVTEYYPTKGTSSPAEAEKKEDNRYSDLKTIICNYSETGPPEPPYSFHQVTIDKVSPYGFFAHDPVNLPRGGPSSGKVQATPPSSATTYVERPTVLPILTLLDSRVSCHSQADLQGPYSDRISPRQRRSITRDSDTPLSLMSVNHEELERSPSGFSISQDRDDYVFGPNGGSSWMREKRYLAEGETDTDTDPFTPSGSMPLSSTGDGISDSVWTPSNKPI
T2 sequence (O43526 whole entry): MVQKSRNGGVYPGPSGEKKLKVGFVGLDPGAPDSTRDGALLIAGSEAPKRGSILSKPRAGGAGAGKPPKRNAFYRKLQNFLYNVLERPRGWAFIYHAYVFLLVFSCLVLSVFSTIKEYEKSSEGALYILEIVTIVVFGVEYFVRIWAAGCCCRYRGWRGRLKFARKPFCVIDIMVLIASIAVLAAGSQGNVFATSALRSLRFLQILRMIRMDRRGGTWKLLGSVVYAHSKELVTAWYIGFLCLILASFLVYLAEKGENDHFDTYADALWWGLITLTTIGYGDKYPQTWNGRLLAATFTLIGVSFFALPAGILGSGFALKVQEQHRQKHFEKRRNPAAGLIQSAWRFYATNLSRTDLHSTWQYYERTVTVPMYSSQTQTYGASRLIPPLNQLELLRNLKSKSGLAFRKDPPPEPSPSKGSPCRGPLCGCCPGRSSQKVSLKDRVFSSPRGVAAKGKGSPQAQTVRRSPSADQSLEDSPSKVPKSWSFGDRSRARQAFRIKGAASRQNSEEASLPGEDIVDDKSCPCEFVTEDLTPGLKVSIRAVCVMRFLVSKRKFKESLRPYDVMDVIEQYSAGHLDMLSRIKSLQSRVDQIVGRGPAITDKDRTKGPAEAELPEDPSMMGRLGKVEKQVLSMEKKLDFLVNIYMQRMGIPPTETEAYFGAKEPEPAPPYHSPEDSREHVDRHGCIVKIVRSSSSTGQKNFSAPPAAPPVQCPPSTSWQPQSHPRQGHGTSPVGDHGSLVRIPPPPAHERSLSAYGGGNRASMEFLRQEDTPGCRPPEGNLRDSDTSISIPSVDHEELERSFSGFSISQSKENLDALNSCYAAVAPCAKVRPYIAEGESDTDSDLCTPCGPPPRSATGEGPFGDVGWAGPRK
Description: Cell culture: Chinese hamster ovary (CHO) cell-line cells with a constitutive expression of human Kv7.2/3 channels (B'SYS GmbH, Switzerland) were cultured in F-12 nutrient mixture (Biological Industries) supplemented with 10% fetal bovine serum (Biological Industries) and 1% penicillin-streptomycin (Biological Industries) in a humidified 5% CO2 incubator at 37° C. To maintain the stability of human Kv7.2/7.3 expression antibiotic selection was added (Puromycin 5 μg/ml).
High content screen (HCS) using FLIPR Potassium Assay Kit: A FLIPR Potassium Assay Kit (R8222 FLIPR Potassium Assay Explorer Kits, Molecular Devices) was used with the CHO/hKv7.2/3 cell line to screen molecules against the hKv7.2/7.3 ion channel target. The assay exploits the permeability of thallium ions (Tl+) through potassium (K+) channels. In this assay, Tl+ indicator dye is used to produce a bright fluorescent signal upon the binding to Tl+ conducted through the potassium channels. The intensity of the Tl+ signal is proportional to the number of potassium channels in the open state. Therefore, it provides a functional indication of the potassium channel activity. To activate the voltage-gate potassium channels, the cells were stimulated with a mixture of K+ and Tl+ to depolarize the cell membrane. The fluorescence increase in the assay represents the influx of Tl+ into the cell specifically through the potassium channel, providing a functional read-out of hKv7.2/3 activity using a fluorescent plate reader coupled with injectors used to activate the channels.
According to optimization process to achieve uniform and consistent screening conditions the following protocol was established: Cells were seeded in 384-well, black-walled, clear-bottomed Greiner #781091, at a density of 5000 cells per well 24 hours before the assay conductance and incubated overnight in their normal growth medium. On the experiment day the medium was replaced with HBSS, HEPES, and the test compound/vehicle (0.2% DMSO). Dye solution (prepared according to the manufacturer) was added to the plates, which were incubated for 1.5 h light-protected in room temperature. Tecan Spark reader plate injectors were primed with Tl+(1 mM Tl2SO4) or Tl++K+(1 mM Tl2SO4; 5 mM K2SO4) for channel activation and data correction. […] To calculate EC50 values, the data was fitted to sigmoidal regression using Prism GraphPad. The fitting was constrained to a minimum of 1 and a maximal response of about 3.6 unless a different maximal response could be clearly identified.

[1] = Log D, 1-octanol/buffer shake flask; assay type: physicochemical; conditions: pH 7.4
Description: The Log D assay was a miniaturized 1-octanol/buffer shake flask method followed by LC/MS/MS analysis, as follows.
The test compounds or control compounds Nadolol, Chlorpromazine Hydrochloride and Propranolol Hydrochloride were dissolved in 100% DMSO to obtain 10 mM solutions, which were transferred to 96-well polypropylene cluster tubes; 2 μL/well. 1-octanol saturated with 0.1 M phosphate buffer (149 μL/well) and 0.1 M phosphate buffer saturated with 1-octanol (149 μL/well) were added to the tubes, respectively, and each tube was vigorously mixed for 2 minutes and then shaked at a speed of 800 rpm at room temperature for 1 hour, followed by centrifugation at 4000 rpm for 5 minutes at room temperature. Thereafter, for the test compounds and the Chlorpromazine Hydrochloride and Propranolol Hydrochloride, the sample of the buffer layer was diluted by a factor of 50-fold and the sample of 1-octanol layer was diluted by a factor of 2000-fold with internal standard (IS) solution. For Nadolol, the sample of the buffer layer was diluted by a factor of 1000-fold and the sample of 1-octanol layer was diluted by a factor of 400-fold with internal standard (IS) solution. The samples were analyzed using a triple quadrupole mass spectrometer. Peak areas were corrected by dilution factors and embedded internal standard, and the ratio of the corrected peak areas was used to calculate the Log D value. The Log D value for each compound will be calculated by the following equation: […]

Kinetic solubility = assay type: physicochemical; conditions: Table 1; for solubility kinetic: hhbs buffer, aqueous buffer, read-out: Kinetic Sol.
Description: Solubility measurements were performed prior to each in vitro assay to ensure accurate dose response and reproducibility. Briefly, each compound was dissolved to 60 mM in DMSO and calibration curve was performed from 1.5-200 μM using absorbance spectra analysis and determination of λmax. Calibration curve served as the readout for all following assays. The 60 mM stock solution was used to make a 120 μM target concentration of 0.2% DMSO in the appropriate buffer of the in vitro related assay (i.e. HHBS buffer). Solubilized compounds were vortex for 10 minutes followed by centrifugation for 15 minutes in 5000 RPM and the supernatant was recovered for absorbance spectra analysis between 200-400 nm.

[2] = Human liver microsome metabolic stability; assay type: in vitro ADME; conditions: human liver microsomes; for microsomal CLint at 1 µM: read-out: HLM Clint; for HLM Clint: 1 µM
From the text: Liver microsomes which are subcellular particles derived from endoplasmic reticulum of hepatic cells were used for evaluating the tested compounds. These particles are rich in drug metabolizing enzymes, including the cytochrome p-450 family. Liver microsomes are a recommended test system for various in vitro drug metabolism and pharmacokinetics (DMPK) studies. CLint values lower than […] are considered suitable for drug development.
Liver Microsome Metabolic Stability Assay (NADPH): The liver microsome stability assay was evaluated through pre-incubation with HLMs. A liver microsome mixture (pooled from multiple donors) at a concentration of 0.5 mg/mL, and the test compound at a concentration of 1 μM, were warmed in the presence of a NADPH regenerating system (about 1.0 mM) at 37° C. Positive controls, including testosterone (a CYP3A4 substrate), propafenone (a CYP2D6 substrate), and diclofenac (a CYP2C9) substrate, were concurrently incubated with the HLMs, in the presence of the NADPH regenerating system (1.0 mM). Samples were extracted during incubation at multiple intervals: 0, 5, 15, 30, 45 and 60 minutes. To terminate the reactions, the samples were promptly mixed with cooled acetonitrile that included an internal standard (IS). An additional compound was incubated with the HLMs in the absence of the NADPH regeneration system, from which a sample was taken at the 60-minute interval.
The clearance of the test compound in the samples was subsequently analyzed by LC-MS/MS based on the peak area ratios of the analyte to the IS.
The following equation was used to calculate the microsome clearance: […]
Liver weight: 40 grams/kg, 30 grams/kg, 32 grams/kg, 20 grams/kg and 88 grams/kg, for rat, monkey, dog, human and mouse, respectively.

hERG = hERG (Homo sapiens, UniProt Q12809); assay: hERG HCS, FLIPR potassium assay, CHO/hERG; assay type: cell-based; design: host or cells: CHO; conditions: Table 1; for IC50: read-out: hERG IC50; for hERG IC50 (inhibition in parentheses): at highest concentration shown
Chain of hERG (Q12809 whole entry): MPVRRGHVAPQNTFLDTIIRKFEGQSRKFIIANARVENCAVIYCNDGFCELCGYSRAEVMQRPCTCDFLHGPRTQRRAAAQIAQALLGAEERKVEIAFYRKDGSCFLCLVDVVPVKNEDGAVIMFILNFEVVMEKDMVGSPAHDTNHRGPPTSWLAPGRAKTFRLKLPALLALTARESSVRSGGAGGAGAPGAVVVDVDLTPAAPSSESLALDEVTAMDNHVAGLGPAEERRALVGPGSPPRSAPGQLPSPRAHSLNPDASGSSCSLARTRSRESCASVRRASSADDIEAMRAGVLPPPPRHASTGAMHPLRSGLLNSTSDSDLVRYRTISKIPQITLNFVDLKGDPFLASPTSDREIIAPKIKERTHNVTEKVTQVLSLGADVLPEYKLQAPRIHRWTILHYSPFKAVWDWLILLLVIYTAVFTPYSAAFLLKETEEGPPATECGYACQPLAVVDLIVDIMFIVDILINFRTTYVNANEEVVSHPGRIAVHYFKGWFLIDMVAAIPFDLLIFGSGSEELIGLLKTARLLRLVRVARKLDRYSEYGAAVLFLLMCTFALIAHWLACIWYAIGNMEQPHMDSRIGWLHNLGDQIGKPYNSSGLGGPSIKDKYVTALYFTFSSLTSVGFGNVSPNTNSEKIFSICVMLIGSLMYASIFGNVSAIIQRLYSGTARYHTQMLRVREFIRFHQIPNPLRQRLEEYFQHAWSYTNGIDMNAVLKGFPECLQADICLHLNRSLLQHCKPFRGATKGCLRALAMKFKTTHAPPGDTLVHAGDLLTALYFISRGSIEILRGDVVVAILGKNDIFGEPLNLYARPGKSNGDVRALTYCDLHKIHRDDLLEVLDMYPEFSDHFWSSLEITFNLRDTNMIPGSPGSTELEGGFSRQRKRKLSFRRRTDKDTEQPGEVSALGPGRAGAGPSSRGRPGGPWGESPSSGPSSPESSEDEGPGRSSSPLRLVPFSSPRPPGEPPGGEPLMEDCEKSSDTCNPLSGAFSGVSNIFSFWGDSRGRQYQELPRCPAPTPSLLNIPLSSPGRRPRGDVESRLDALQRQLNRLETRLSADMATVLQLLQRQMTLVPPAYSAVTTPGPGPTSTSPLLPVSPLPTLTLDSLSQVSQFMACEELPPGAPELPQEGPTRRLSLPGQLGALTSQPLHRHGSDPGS
Description: Cell culture: Chinese hamster ovary (CHO) cell-line cells with a constitutive expression of human hERG channels (B'SYS GmbH, Switzerland) were cultured in F-12 nutrient mixture (Biological Industries) supplemented with 10% fetal bovine serum (Biological Industries) and 1% penicillin-streptomycin (Biological Industries) in a humidified 5% CO2 incubator at 37° C. To maintain the hERG expression stability of the CHO cell line, antibiotics selection (G418 […] and Hygromycin 500) was applied.
FLIPR Potassium Assay Kit: The FLIPR Potassium Assay Kit (R8222 FLIPR Potassium Assay Explorer Kits, Molecular Devices) was used with CHO/hERG cell line, for screening compounds against the hERG ion-channel off-target, as detailed hereinabove.
According to optimization process, to achieve a uniform and consistent screening condition of molecules, the following protocol was established: Cells were seeded in 384-well, black-walled, clear-bottomed, at a density of 7,500 cells per well 24 hours before the assay conductance and incubated overnight in their normal growth medium. On the experiment day the medium was replaced with HBSS, HEPES, and the tested compound/vehicle (0.2% DMSO). Dye solution (prepared according to the manufacturer) was added to the wells and plates were incubated for 1.5 hour light-protected in room temperature. The Tecan Spark plate-reader injectors were primed with Tl+(1 mM Tl2SO4) or Tl++K+(1 mM Tl2SO4; 10 mM K2SO4) for channel activation and data correction. […]. To calculate IC50 values, the data was fitted to sigmoidal regression using Prism GraphPad.

[3] = cells expressing TRPV1, read-out: TRPV1 IC50
[4] = 1-octanol/phosphate buffer, read-out: LogD

Structure (SMILES): O=C(Cc1cncc(-n2cc(Cl)c3cc(Cl)cc(Cl)c32)c1)NCCO [Compound 649]
- IC50 (hTRPV1; [3]): 3300 nM
- EC50 (hKv7.2/3): 5.2 µM
- logD [1, 4]: 4.19
- solubility kinetic (Kinetic solubility): 10 µM (≈ 3.99 µg/mL)
- microsomal CLint at 1 µM [2]: 27.3 µL/min/mg

Structure (SMILES): CC(C)c1cc(Cl)cc(Cl)c1C(O)c1ccc(F)c(CC(=O)NCC2(O)CCC2)c1 (single isomer, unassigned) [Compound 533p1]
- TRPV1 modulation (words) (hTRPV1): inhibits hTRPV1
- TRPV1 modulation (words) (hTRPV1; listed as 533P1): TRPV1 inhibition
- Kv7.2/3 activation (words) (hKv7.2/3): lower
- Kv7.2/3 activation (words) (hKv7.2/3; listed as 533P1): primarily activation of Kv7.2/3

Structure (SMILES): O=C(Cc1cncc(-n2cc(Cl)c3cc(Cl)cc(Cl)c32)c1)N[C@@H]1COC[C@@H]1O [Compound 662]
- TRPV1 IC50 (hTRPV1; cells expressing TRPV1): agonist
- EC50 (hKv7.2/3): 8 µM
- logD [1, 4]: 3.49
- solubility kinetic (Kinetic solubility): 6 µM (≈ 2.64 µg/mL)
- microsomal CLint at 1 µM [2]: 38.1 µL/min/mg

Structure (SMILES): Cc1cn(-c2ccc(F)c(CC(=O)NCCO)c2)c2c(Cl)cc(Cl)cc12 [Compound 552]
- IC50 (hTRPV1; [3]): 1000 nM
- EC50 (hKv7.2/3): 12 µM
- logD [1]: 4.77
- Kinetic Sol. (Kinetic solubility): 5
- HLM Clint [2]: 27.2 µL/min/mg

Structure (SMILES): O=C(Cc1cncc(-n2cc(Cl)c3cc(Cl)cc(Cl)c32)c1)N[C@H]1COC[C@@H]1O [Compound 663]
- EC50 (hKv7.2/3): 5.9 µM
- logD [1, 4]: 3.52
- solubility kinetic (Kinetic solubility): 26 µM (≈ 11.5 µg/mL)
- microsomal CLint at 1 µM [2]: 53.6 µL/min/mg

Structure (SMILES): COC[C@@H](CO)NC(=O)Cc1cc(Sc2c(Cl)cc(Cl)cc2C(C)C)ccc1F [Compound 414]
- IC50 (hTRPV1; Table 2, read-out: Experimental IC50): 1100 nM
- IC50 (hTRPV1; [3]): 1100 nM
- EC50 (hKv7.2/3): 1.8 µM
- microsomal CLint at 1 µM [2]: 686 µL/min/mg
- IC50 (hERG): > 2500 nM
- hERG IC50 (inhibition in parentheses) (hERG): 0%

Structure (SMILES): CC(C)c1cc(Cl)cc(Cl)c1C(O)c1ccc(F)c(CC(=O)NCC(C)(C)O)c1 (stereo not drawn) [Compound 417]
- IC50 (hTRPV1; [3]): 26600 nM
- EC50 (hKv7.2/3): 5.6 µM
- microsomal CLint at 1 µM [2]: 89.1 µL/min/mg
- IC50 (hERG): > 2500 nM
- hERG IC50 (inhibition in parentheses) (hERG): 0%

Structure (SMILES): Cc1cn(-c2ccc(F)c(CC(=O)NCCOCCOCC(C)(C)O)c2)c2c(Cl)cc(Cl)cc12 [Compound 541]
- IC50 (hTRPV1; [3]): 3200 nM
- EC50 (hKv7.2/3): 4.7 µM
- logD [1]: 4.78
- Kinetic Sol. (Kinetic solubility): 2
- HLM Clint [2]: 772.2 µL/min/mg

Structure (SMILES): CC(C)c1cc(Cl)cc(Cl)c1Sc1ccc(F)c(CC(=O)N[C@H]2C[C@H](O)C2)c1 [Compound 480]
- IC50 (hTRPV1): 1400 nM

Structure (SMILES): CC(C)c1cc(Cl)cc(Cl)c1C(=O)c1ccc(F)c(CC(=O)NCC2(O)CCC2)c1 [Compound 569]
- IC50 (hTRPV1; [3]): 10000 nM
- EC50 (hKv7.2/3): 3 µM
- logD [1, 4]: 4.47
- solubility kinetic (Kinetic solubility): 27 µM (≈ 12.2 µg/mL)
- microsomal CLint at 1 µM [2]: 120 µL/min/mg
